Columns and labels:
Experiment in all cases: Test D controlled growth environment herbicide test, pre- and postemergence
Format in all cases: in vivo
[1] = test system: barley, spring (spring barley, Hordeum vulgare)
Outline: (§1)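 Rating is visual, 0–100 scale (100 = complete control), made against untreated plants 14–21 d after treatment in controlled growth conditions. Postemergence sprays went onto 1- to 4-leaf plants in peat medium; preemergence sprays onto silt loam after sowing; formulation included a surfactant.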

[2] = test system: blackgrass (Alopecurus myosuroides)
Outline: as §1

[3] = test system: bromegrass, downy (downy bromegrass, Bromus tectorum)
Outline: as §1

[4] = test system: canarygrass (Phalaris minor)
Outline: as §1

[5] = test system: chamomile (scentless chamomile, Matricaria inodora)
Outline: as §1

[6] = test system: chickweed (common chickweed, Stellaria media)
Outline: as §1

[7] = test system: deadnettle (henbit deadnettle, Lamium amplexicaule)
Outline: as §1

[8] = test system: field poppy (Papaver rhoeas)
Outline: as §1

[9] = test system: foxtail, green (green foxtail, Setaria viridis)
Outline: as §1

[10] = test system: galium (catchweed bedstraw, Galium aparine)
Outline: as §1

kochia (Kochia scoparia) = test system: kochia (Kochia scoparia)
Outline: as §1

[11] = test system: lambsquarters (Chenopodium album)
Outline: as §1

[12] = test system: oilseed rape (Brassica napus)
Outline: as §1

[13] = test system: wheat, spring (spring wheat, Triticum aestivum)
Outline: as §1

[14] = Postemergence, 31 g ai/ha, scale 0 to 100 (0 no effect, 100 complete control)
[15] = Postemergence, 125 g ai/ha, visual rating on scale 0 (no effect) to 100 (complete control), 14 to 21 d
[16] = Postemergence, 250 g ai/ha, scale 0 to 100 (0 no effect, 100 complete control)
[17] = Preemergence, 62 g ai/ha, scale 0 to 100 (0 no effect, 100 complete control)
[18] = Preemergence, 125 g ai/ha, scale 0 to 100 (0 no effect, 100 complete control)
[19] = Preemergence, 250 g ai/ha, scale 0 to 100, 0 no effect, 100 complete control
[20] = postemergence, 62 g ai/ha, scale 0 to 100, 0 no effect, 100 complete control

Cc1ccc2sc(Br)c(-c3c(O)c(C)nn(C)c3=O)c2c1 [Compound 79]
Barley, Spring plant response rating [1, 14]: 0 | Plant response rating, Barley, Spring [1, 15]: 5 | Plant response rating, Barley, Spring [1, 16]: 10 | Plant response rating (scale of 0 to 100), Barley, Spring ([1]; Preemergence, 31 g ai/ha): 0 | Plant response rating, Barley, Spring [1, 17]: 0 | Plant response rating, Barley, Spring [1, 18]: 0 | Plant response rating, Barley, Spring [1, 19]: 0 | Plant response rating, Barley, Spring [1, 20]: 5 | Blackgrass plant response rating [2, 14]: 10 | Plant response rating, Blackgrass [2, 15]: 40 | Plant response rating, Blackgrass [2, 16]: 50 | Plant response rating (scale of 0 to 100), Blackgrass ([2]; Preemergence, 31 g ai/ha): 20 | Plant response rating, Blackgrass [2, 17]: 45 | Plant response rating, Blackgrass [2, 18]: 55 | Plant response rating, Blackgrass [2, 19]: 60 | Plant response rating, Blackgrass [2, 20]: 20 | Bromegrass, Downy plant response rating [3, 14]: 5 | Plant response rating, Bromegrass, Downy [3, 15]: 10 | Plant response rating, Bromegrass, Downy [3, 16]: 20 | Plant response rating (scale of 0 to 100), Bromegrass, Downy ([3]; Preemergence, 31 g ai/ha): 35 | Plant response rating, Bromegrass, Downy [3, 17]: 35 | Plant response rating, Bromegrass, Downy [3, 18]: 50 | Plant response rating, Bromegrass, Downy [3, 19]: 60 | Plant response rating, Bromegrass, Downy [3, 20]: 5 | Canarygrass plant response rating [4, 14]: 5 | Plant response rating, Canarygrass [4, 15]: 40 | Plant response rating, Canarygrass [4, 16]: 45 | Plant response rating (scale of 0 to 100), Canarygrass ([4]; Preemergence, 31 g ai/ha): 45 | Plant response rating, Canarygrass [4, 17]: 60 | Plant response rating, Canarygrass [4, 18]: 75 | Plant response rating, Canarygrass [4, 19]: 85 | Plant response rating, Canarygrass [4, 20]: 20 | Chamomile plant response rating [5, 14]: 85 | Plant response rating, Chamomile [5, 15]: 100 | Plant response rating, Chamomile [5, 16]: 100 | Plant response rating, Chamomile [5, 20]: 95 | Chickweed plant response rating [6, 14]: 95 | Plant response rating, Chickweed [6, 15]: 100 | Plant response rating, Chickweed [6, 16]: 100 | Plant response rating (scale of 0 to 100), Chickweed ([6]; Preemergence, 31 g ai/ha): 100 | Plant response rating, Chickweed [6, 17]: 100 | Plant response rating, Chickweed [6, 18]: 100 | Plant response rating, Chickweed [6, 19]: 100 | Plant response rating, Chickweed [6, 20]: 95 | Deadnettle plant response rating [7, 14]: 5 | Plant response rating, Deadnettle [7, 15]: 20 | Plant response rating, Deadnettle [7, 16]: 40 | Plant response rating (scale of 0 to 100), Deadnettle ([7]; Preemergence, 31 g ai/ha): 0 | Plant response rating, Deadnettle [7, 17]: 10 | Plant response rating, Deadnettle [7, 18]: 100 | Plant response rating, Deadnettle [7, 19]: 90 | Plant response rating, Deadnettle [7, 20]: 15 | Field Poppy plant response rating [8, 14]: 75 | Plant response rating, Field Poppy [8, 15]: 95 | Plant response rating, Field Poppy [8, 16]: 98 | Plant response rating (scale of 0 to 100), Field Poppy ([8]; Preemergence, 31 g ai/ha): 100 | Plant response rating, Field Poppy [8, 17]: 100 | Plant response rating, Field Poppy [8, 18]: 100 | Plant response rating, Field Poppy [8, 19]: 100 | Plant response rating, Field Poppy [8, 20]: 85 | Foxtail, Green plant response rating [9, 14]: 20 | Plant response rating, Foxtail, Green [9, 15]: 75 | Plant response rating, Foxtail, Green [9, 16]: 80 | Plant response rating (scale of 0 to 100), Foxtail, Green ([9]; Preemergence, 31 g ai/ha): 55 | Plant response rating, Foxtail, Green [9, 17]: 60 | Plant response rating, Foxtail, Green [9, 18]: 65 | Plant response rating, Foxtail, Green [9, 19]: 95 | Plant response rating, Foxtail, Green [9, 20]: 70 | Galium plant response rating [10, 14]: 95 | Plant response rating, Galium [10, 15]: 100 | Plant response rating, Galium [10, 16]: 100 | Plant response rating (scale of 0 to 100), Galium ([10]; Preemergence, 31 g ai/ha): 80 | Plant response rating, Galium [10, 17]: 90 | Plant response rating, Galium [10, 18]: 100 | Plant response rating, Galium [10, 19]: 100 | Plant response rating, Galium [10, 20]: 100 | Kochia plant response rating (kochia (Kochia scoparia); [14]): 70 | Plant response rating, Kochia (kochia (Kochia scoparia); [15]): 85 | Plant response rating, Kochia (kochia (Kochia scoparia); [16]): 95 | Plant response rating (scale of 0 to 100), Kochia (kochia (Kochia scoparia); Preemergence, 31 g ai/ha): 60 | Plant response rating, Kochia (kochia (Kochia scoparia); [17]): 55 | Plant response rating, Kochia (kochia (Kochia scoparia); [18]): 100 | Plant response rating, Kochia (kochia (Kochia scoparia); [19]): 95 | Plant response rating, Kochia (kochia (Kochia scoparia); [20]): 80 | Lambsquarters plant response rating [11, 14]: 85 | Plant response rating, Lambsquarters [11, 15]: 90 | Plant response rating, Lambsquarters [11, 16]: 100 | Plant response rating (scale of 0 to 100), Lambsquarters ([11]; Preemergence, 31 g ai/ha): 100 | Plant response rating, Lambsquarters [11, 17]: 100 | Plant response rating, Lambsquarters [11, 18]: 100 | Plant response rating, Lambsquarters [11, 19]: 100 | Plant response rating, Lambsquarters [11, 20]: 80 | Oilseed Rape plant response rating [12, 14]: 0 | Plant response rating, Oilseed Rape [12, 15]: 20 | Plant response rating, Oilseed Rape [12, 16]: 30 | Plant response rating (scale of 0 to 100), Oilseed Rape ([12]; Preemergence, 31 g ai/ha): 25 | Plant response rating, Oilseed Rape [12, 17]: 35 | Plant response rating, Oilseed Rape [12, 18]: 40 | Plant response rating, Oilseed Rape [12, 19]: 35 | Plant response rating, Oilseed Rape [12, 20]: 5 | Wheat, Spring plant response rating [13, 14]: 0 | Plant response rating, Wheat, Spring [13, 15]: 0 | Plant response rating, Wheat, Spring [13, 16]: 5 | Plant response rating (scale of 0 to 100), Wheat, Spring ([13]; Preemergence, 31 g ai/ha): 0 | Plant response rating, Wheat, Spring [13, 17]: 0 | Plant response rating, Wheat, Spring [13, 18]: 0 | Plant response rating, Wheat, Spring [13, 19]: 0 | Plant response rating, Wheat, Spring [13, 20]: 0

From patent US10597388B2, “Pyridazinone herbicides” (FMC CORPORATION, priority 2014, dated 2020)
